# Measurements taken from patent US20230277562A1, “USE OF C[…] THE TREATMENT OF SEIZURES ASSOCIATED WITH RARE […] SYNDROMES RELATED TO GENETIC ABNORMALITIES” (GW Research Limited, priority 2020, published 2023).
# Entries after “also recorded” stand apart in the source; their conditions may differ.
# Tested on: seizures associated with congenital disorder of glycosylation 1P (tonic and myoclonic seizures)
# Experiment: Open label, expanded-access program of botanically derived purified CBD: seizure frequency in a patient with congenital disorder of glycosylation 1P
# Format: in vivo, human
# Details: for Seizure frequency, Tonic: baseline 448.0; for Seizure frequency, Myoclonic: baseline 700.0
# Description: The subject was required to be on one or more AEDs at stable doses for a minimum of two weeks prior to baseline and to have stable vagus nerve stimulation (VNS) settings and ketogenic diet ratios for a minimum of four weeks prior to baseline.
# Dose was then increased weekly by 5 mg/kg/day to a goal of 25 mg/kg/day.
# A maximum dose of 50 mg/kg/day could be utilised for the patient if they were tolerating the medication but had not achieved seizure control; the patient had further weekly titration by 5 mg/kg/day.
# Modifications were made to concomitant AEDs as per clinical indication.
# Seizure frequency, intensity, and duration were recorded by caregivers in a diary during a baseline period of at least 28 days. Changes in seizure frequency relative to baseline were calculated after at least 2 weeks and at defined timepoints of treatment.
# Patients may be defined as responders if they had more than 50% reduction in seizure frequency compared to baseline. The percent change in seizure frequency was calculated as follows: […]
# The percent change of seizure frequency may be calculated for any time interval where seizure number has been recorded. For the purpose of this example the percent change of seizure frequency for the end of the treatment period was calculated as follows: […]
# [1] = Patient 1, 2 weeks, dose CBD 9.1 mg/kg/day
# [2] = Patient 1, 4 weeks, dose CBD 18.2 mg/kg/day
# [3] = Patient 1, 8 weeks, dose CBD 26.3 mg/kg/day
# [4] = Patient 1, 12 weeks, dose CBD 19.0 mg/kg/day
# [5] = Patient 1, 16 weeks, dose CBD 13.3 mg/kg/day
# [6] = Patient 1, treated for 132 weeks, relative to baseline
smiles,measurement,setting,value
"C=C(C)[C@@H]1CCC(C)=C[C@H]1c1c(O)cc(CCCCC)cc1O [CBD, cannabidiol]","Seizure frequency, Tonic",[1],328.0
same,"Seizure frequency, Myoclonic",[1],384.0
same,"Seizure frequency, Tonic",[2],231.2
same,"Seizure frequency, Myoclonic",[2],424.8
same,"Seizure frequency, Tonic",[3],52.0
same,"Seizure frequency, Myoclonic",[3],608.0
same,"Seizure frequency, Tonic",[4],22.8
same,"Seizure frequency, Myoclonic",[4],986.0
same,"Seizure frequency, Tonic",[5],20.0
same,"Seizure frequency, Myoclonic",[5],1251.2
same,reduction in myoclonic seizures over the treatment period,[6],72.1%
same,reduction in tonic seizures over the treatment period,[6],57.2%
same,effect on frequency/number of tonic and myoclonic seizures (in words),patient with congenital disorder of glycosylation 1P,effective in reducing the frequency of tonic and myoclonic seizures; also recorded: significantly reduce the number of seizures; also recorded: significant reduction in tonic and myoclonic seizures
